Source: patent US11998602B2, “Methods for promoting myelination and for treating demyelinating diseases” (The Scripps Research Institute, priority 2018, dated 2024)

Test system: Rat primary optic nerve OPCs
Assay: High content imaging assay of OPC differentiation (MBP, A2B5, DAPI cell counts)
Type: cell-based
Procedure: Rat primary optic nerve OPCs were isolated by panning (>99% A2B5^+) and cultured in poly-D-lysine (10 μg/ml)-coated TC dishes in OPC culture media (Neurobasal Media, Invitrogen) supplemented with B27-without vitamin A (Invitrogen), 1× non-essential amino acids, 1× Glutamax, 1× anti-anti, β-mercaptoethanol and PDGF-AA (50 ng/ml; Peprotech) at 37° C. with 5% CO2. The culture medium was replaced every 48 h and cells were collected before the confluency reached 60% to maintain a naive state. For differentiation, OPCs were plated at 1 million cells in one 10 cm petri-dish filled with differentiation media, which is identical to the culture media, but with PDGF-AA at 2 ng/ml. T3 and DMSO were used as the positive control and negative control, respectively. Five replicates of cells were collected at different times (0, 3, and 6 days) for metabolomics studies. High content imaging. For dose-response co-treatment experiments, black, clear-bottom 384-well plates (Greiner) were coated with poly-D-lysine (10 μg ml^−1 in PBS). miconazole and benztropine were added at 8 doses in differentiation media; 3-fold dilutions down from 10 μM. taurine was then added at 8 concentrations; 3-fold dilutions down from 20 mM. This 384-well format was also utilized for experiments combining benztropine (0.5 μM), miconazole (2 μM) or T3 (1 μM) with propargylglycine (0.1, 3, 10, 30 μM), reduced glutathione (1, 10, 30, 100 μM) or ascorbic acid ([…]). OPCs were then seeded at a density of 1,000 cells per well, and the plates were incubated at 37° C. with 5% CO2 for 6 days. For time course experiments, cells were seeded at a density of 5,000 cells per well in poly-D-lysine-coated 96-well plates. Cells were treated with DMSO (0.1%), benztropine (0.5 μM), miconazole (2 μM) or T3 (1 μM) on day 0, and taurine (20 mM) was added in combination at 0, 1 or 3 days post-drug treatment. The plates were incubated at 37° C. with 5% CO2 for 6 days. On day 6, cells were then fixed for 20 min with 4% formaldehyde solution and stained with mouse anti-Myelin Basic Protein (MBP) antibody (MAB382, Millipore) or anti-A2B5 antibody (MAB312, Millipore) in 3% BSA, 0.3% Triton X-100 with overnight incubation at 4° C. The cells were washed and incubated with secondary antibody (goat anti-mouse Alexa Fluor488) and DAPI (Invitrogen) for 1 h at room temperature. The cells were washed and plates were sealed and imaged using an Opera confocal imaging reader (Perkin Elmer) or a Cellomics Cell Insight imaging reader (Thermo). An air ×10 lens was used to capture 9 images per well at both wavelengths (488 and 365 nm), with each image representing a different unique locations field in a single well. For image analysis, DAPI-stained nuclei and MBP-positive or A2B5-positive cell bodies were detected using an algorithm that selects for positive cell bodies and nuclei within a range of fluorescent emission values and sizes as determined by fitting parameters to positive (T3, 1 μM) and negative controls (DMSO, 0.1%). The numbers of DAPI-positive objects were enumerated in experiments where cell counts were required. Numerical results from the analyzed images were later exported for analysis using Excel (Microsoft) and/or Genedata software.

SMILES: NCCS(=O)(=O)O [taurine, 2-aminoethanesulfonic acid]
- Enhancement of overall cell number compared to drug treatment alone (>2 mM taurine with miconazole or benztropine, 6 days): over 20%
- Days of taurine addition with the most significant impact on MBP expression (dosing initiated at days 0 to 5, evaluated at day 6): between days 1 and 3
- Impact on MBP expression of taurine addition on day 0 compared with days 1 to 3 (evaluated at day 6): significantly less efficacious
- Impact on number of residual immature A2B5+ OPCs (taurine added on day 0, 1 or 3 to basal or drug-induced conditions, read at day 3 or day 6): minimal, albeit statistically significant, impact
